Literature values as cited in PMC7163368 (British Journal of Clinical Pharmacology, 2020).

Conditions: cited from earlier work

| Structure (SMILES) | Oral bioavailability [%] | further results |
| --- | --- | --- |
| CC#CCn1c(N2CCC[C@@H](N)C2)nc2c1c(=O)n(Cc1nc(C)c3ccccc3n1)c(=O)n2C [linagliptin] |  | Terminal half‐life (currently available oral gliptines): 105 h |
| N#C[C@@H]1C[C@@H]2C[C@@H]2N1C(=O)[C@@H](N)C12CC3CC(CC(O)(C3)C1)C2 [saxagliptin] | 67 |  |
| N[C@@H](CC(=O)N1CCn2c(nnc2C(F)(F)F)C1)Cc1cc(F)c(F)cc1F [sitagliptin] |  | Plasma levels higher in female subjects (female vs male subjects): approximately 25% |
| N#C[C@@H]1CCCN1C(=O)CNC12CC3CC(CC(O)(C3)C1)C2 [vildagliptin] | 85 |  |
